Test results taken from US5238825A, “Preparation and use of a cyclodextrinase for preparing maltooligosaccharides” (Kikkoman Corporation, priority 1989, dated 1993).
Read-outs that look alike come from different tables or passages of the source.

Key:
cyclodextrinase [1] = molecular target: T1, cyclodextrinase (Lysinibacillus sphaericus, UniProt Q08341); test: Substrate specificity of the present cyclodextrinase (relative hydrolysis rate); format: biochemical, Bacillus sphaericus
T1 construct: is cultured in a medium to yield and accumulate said cyclodextrinase, and this enzyme is collected from the culture; made in house; host or cells: Bacillus sphaericus E-244 (FERM BP-2458), the natural wild-type producer strain; not recombinant
T1 sequence (Q08341 1-591): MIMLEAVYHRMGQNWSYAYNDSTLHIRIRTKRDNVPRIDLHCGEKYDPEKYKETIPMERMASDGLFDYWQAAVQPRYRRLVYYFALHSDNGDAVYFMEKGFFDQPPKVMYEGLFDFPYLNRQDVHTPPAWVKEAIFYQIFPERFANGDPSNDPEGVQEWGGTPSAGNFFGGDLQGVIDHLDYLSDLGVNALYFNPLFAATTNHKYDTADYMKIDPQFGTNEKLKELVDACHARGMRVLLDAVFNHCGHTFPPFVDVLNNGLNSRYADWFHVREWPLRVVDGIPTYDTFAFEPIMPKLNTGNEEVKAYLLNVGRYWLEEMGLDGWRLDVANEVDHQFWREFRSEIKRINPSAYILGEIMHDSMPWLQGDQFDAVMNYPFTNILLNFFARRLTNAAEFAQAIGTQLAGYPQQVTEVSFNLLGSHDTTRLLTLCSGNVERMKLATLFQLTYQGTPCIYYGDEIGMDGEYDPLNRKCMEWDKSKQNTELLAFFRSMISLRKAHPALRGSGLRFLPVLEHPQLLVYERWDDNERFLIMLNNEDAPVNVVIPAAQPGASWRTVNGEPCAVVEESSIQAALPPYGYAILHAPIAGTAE
Protocol: (§1) When the amount of the enzyme was small, the reducing power of the enzyme was determined according to Nelson-Somogyi's method, with glucose as standard.

cyclodextrinase [2] = molecular target: T1, cyclodextrinase; test: Influence of metal ions on the activity of the present enzyme; format: biochemical, Bacillus sphaericus; conditions: for Residual activity: ions added, final conc. 1 mM, none = 100
Protocol: as §1

cyclodextrinase [3] = molecular target: T1, cyclodextrinase; test: Reaction rate parameters of the present enzyme for cyclodextrins and maltooligosaccharides; format: biochemical, Bacillus sphaericus; parameters: Vmax: unit not given here; conditions: for Relative value: Vmax/Km relative to β-cyclodextrin = 1.00
Protocol: as §1

cyclodextrinase [4] = conditions: Bacillus coagulans enzyme, prior literature; cited from earlier work
cyclodextrinase [5] = conditions: Bacillus macerans enzyme, prior literature; cited from earlier work
[6] = substrate conc. 0.1%, β-cyclodextrin (2 mM) = 100
[7] = substrate conc. 2 mM, β-cyclodextrin = 100

Compound | Relative hydrolysis rate (cyclodextrinase [1]; [6]) | Residual activity (cyclodextrinase [2]) | Vmax (cyclodextrinase [3]) | Relative value (cyclodextrinase [3]) | other results
Amylopectin | 0.7% |  |  |  | 
Pullulan | 1.5% |  |  |  | 
[Ca+2] [Ca^2+] |  | 138.2% |  |  | activation of the enzyme by metal ion (cyclodextrinase [2]): 10-30%
OC[C@H]1O[C@@H]2O[C@H]3[C@H](O)[C@@H](O)[C@@H](O[C@H]4[C@H](O)[C@@H](O)[C@@H](O[C@H]5[C@H](O)[C@@H](O)[C@@H](O[C@H]6[C@H](O)[C@@H](O)[C@@H](O[C@H]7[C@H](O)[C@@H](O)[C@@H](O[C@H]8[C@H](O)[C@@H](O)[C@@H](O[C@H]1[C@H](O)[C@H]2O)O[C@@H]8CO)O[C@@H]7CO)O[C@@H]6CO)O[C@@H]5CO)O[C@@H]4CO)O[C@@H]3CO [β-cyclodextrin] |  |  | 0.110 | 1.00 | Km (cyclodextrinase [4]): 2800 µM; Relative hydrolysis rate (cyclodextrinase [1]; [7]): 100%; Km (cyclodextrinase [5]): 2650 µM
Dextran | 11% |  |  |  | 
OC[C@H]1O[C@H](O[C@H]2[C@H](O)[C@@H](O)[C@@H](O[C@H]3[C@H](O)[C@@H](O)[C@@H](O[C@H]4[C@H](O)[C@@H](O)[C@@H](O[C@H]5[C@H](O)[C@@H](O)[C@@H](O[C@H]6[C@H](O)[C@@H](O)C(O)O[C@@H]6CO)O[C@@H]5CO)O[C@@H]4CO)O[C@@H]3CO)O[C@@H]2CO)[C@H](O)[C@@H](O)[C@@H]1O (stereo partly drawn) [Maltohexaose] |  |  | 0.075 | 0.23 | Km (cyclodextrinase [4]): 1500 µM; Relative hydrolysis rate (cyclodextrinase [1]; [7]): 43%
[Fe+3] [Fe^3+] |  | 41.6% |  |  | Residual activity (cyclodextrinase [2]; listed as Fe^2+): 4.6%
[Ni+2] [Ni^2+] |  | 0.9% |  |  | 
Amylose [Amylose (G99)] | 3.7% |  |  |  | 
OC[C@H]1O[C@H](O[C@H]2[C@H](O)[C@@H](O)[C@@H](O[C@H]3[C@H](O)[C@@H](O)[C@@H](O[C@H]4[C@H](O)[C@@H](O)[C@@H](O[C@H]5[C@H](O)[C@@H](O)[C@@H](O[C@H]6[C@H](O)[C@@H](O)[C@@H](O[C@H]7[C@H](O)[C@@H](O)C(O)O[C@@H]7CO)O[C@@H]6CO)O[C@@H]5CO)O[C@@H]4CO)O[C@@H]3CO)O[C@@H]2CO)[C@H](O)[C@@H](O)[C@@H]1O (stereo partly drawn) [Maltoheptaose] |  |  | 0.060 | 0.30 | Relative hydrolysis rate (cyclodextrinase [1]; [7]): 66%
OC[C@H]1O[C@H](O[C@H]2[C@H](O)[C@@H](O)[C@@H](O[C@H]3[C@H](O)[C@@H](O)[C@@H](O[C@H]4[C@H](O)[C@@H](O)[C@@H](O[C@H]5[C@H](O)[C@@H](O)C(O)O[C@@H]5CO)O[C@@H]4CO)O[C@@H]3CO)O[C@@H]2CO)[C@H](O)[C@@H](O)[C@@H]1O (stereo partly drawn) [Maltopentaose] |  |  | 0.073 | 0.27 | Relative hydrolysis rate (cyclodextrinase [1]; [7]): 49%
[Hg+2] [Hg^2+] |  | 0.0% |  |  | 
[Cu+2] [Cu^2+] |  | 2.8% |  |  | 
OC[C@H]1O[C@@H]2O[C@H]3[C@H](O)[C@@H](O)[C@@H](O[C@H]4[C@H](O)[C@@H](O)[C@@H](O[C@H]5[C@H](O)[C@@H](O)[C@@H](O[C@H]6[C@H](O)[C@@H](O)[C@@H](O[C@H]7[C@H](O)[C@@H](O)[C@@H](O[C@H]8[C@H](O)[C@@H](O)[C@@H](O[C@H]9[C@H](O)[C@@H](O)[C@@H](O[C@H]1[C@H](O)[C@H]2O)O[C@@H]9CO)O[C@@H]8CO)O[C@@H]7CO)O[C@@H]6CO)O[C@@H]5CO)O[C@@H]4CO)O[C@@H]3CO [γ-cyclodextrin] |  |  | 0.039 | 0.09 | 
Starch | 2.9% |  |  |  | 
[Mn+2] [Mn^2+] |  | 59.3% |  |  | 
OC[C@H]1O[C@H](O[C@H]2[C@H](O)[C@@H](O)[C@@H](O[C@H]3[C@H](O)[C@@H](O)[C@@H](O[C@H]4[C@H](O)[C@@H](O)C(O)O[C@@H]4CO)O[C@@H]3CO)O[C@@H]2CO)[C@H](O)[C@@H](O)[C@@H]1O (stereo partly drawn) [Maltotetraose] |  |  | 0.067 | 0.15 | 
Amylose [Amylose (G18)] | 44% |  |  |  | 
[Mg+2] [Mg^2+] |  | 111.3% |  |  | activation of the enzyme by metal ion (cyclodextrinase [2]): 10-30%
[Zn+2] [Zn^2+] |  | 0.0% |  |  | 
